Measurements published in US6858646B2, “Neuroprotective composition and uses thereof” (Universite du Quebec a Montreal, priority 1999, dated 2005).

Legend:
P19 neurons [1] = format: cell-based; settings: for Protection against oxidative stress caused by hydrogen peroxide: assayed at 0.5× suboptimal concentration, 0 to 10 mM H2O2, 30 min
Description: Culture and neuronal differentiation of P19 embryonal carcinoma cells were done according to the procedures of Jeannotte et al. (1997) with the following modifications for microscale adaptation of cultures to 96-well plates: cell aggregates obtained at day 4 of the treatment of P19 cells with retinoic acid were trypsinized with 0.025% trypsin-1 mM EDTA in PBS and subjected to mechanical passages to obtain individual cells which were seeded in gelatin-precoated microwells at a density of 0.7-1×10^5 cells per well. The newly seeded cells (neurons) were cultured in supplemented Neurobasal medium (Neurobasal® containing 0.5 mM L-glutamine and 0.5% B27 supplement) until exposure to oxidative conditions at day 7. Because this defined serum-free medium sustains growth of P19 neurons (Yao et al., 1995) but discourages the proliferation of fibroblasts, another cell derivative of the differentiation of P19 cells with retinoic acid (McBurney, 1993; Jeannotte et al., 1997), the cell populations in microwells were composed mostly of neurons (≦95%).
The prooxidant systems tested with P19 neurons were XA/XAO, H2O2, and H2O2/Fe^+2. Before neurons were exposed to either one of these systems, they were carefully washed with PBS and then incubated at 37° C., in an atmosphere of 95% ambient air and 5% CO2, and in the specific conditions of each system, as follows: i) from 0 to 90 min in the presence of PBS containing 500 μM XA and 50 mU/ml XAO, with the enzyme added last to start the reaction; ii) for 30 min in the presence of PBS containing 0 to 10 mM H2O2 with peroxide added last; and iii) for 30 min in the presence of PBS containing 0 to 10 mM H2O2 plus 50 μM FeCl2, with peroxide added last. Conditions were initially taken from Cini et al. (1994) for XA/XAO, from Desagher et al. (1996) for H2O2, and from Takemura et al. (1994) for H2O2/Fe^+2 systems respectively, and adapted to produce dose- or time-dependent cell mortality in P19 neurons. The first studies done with the H2O2/Fe^2+ system included the addition of 500 μM ascorbic acid; however, since responses of P19 neurons were similar whether or not ascorbic acid was present, this vitamin was omitted in subsequent experiments.
When TRIAD or its components were tested for their antioxidant action, they were administered to cells just prior the addition of XAO or H2O2. After incubation of cells under oxidative conditions, the prooxidant medium was removed and replaced with 200 μl of supplemented Neurobasal-minus AO (Neurobasal® containing L-glutamine and the B27-minus AO supplement). B27-minus AO is a version of B27 supplement sold by Gibco-BRL from which normally present antioxidants (AO=vitamin E, catalase, SOD and GSH) have been removed. Cells were incubated in this Neurobasal-minus AO medium for 16 h, at 37° C., 5% CO2, and for a further 7 h in the same medium but in the presence of Alamar Blue for viability measurement.
(§1) Fifteen (15) μl Alamar Blue was added to the culture medium of each well (200 μl) and incubation resumed for 7 h at 37° C., 5% CO2. A 180-μl aliquot of each culture medium was read by fluorescence using a wavelength of 544 nm for excitation and of 590 nm for emission; fluorescence increases upon reduction of the dye by metabolic activity of viable cells. Fluorescence determinations were done with a fluorimeter adapted to read microplates. Viability is reported as %, comparing the fluorescence units obtained for cells exposed to oxidative conditions to those of control (non-exposed) cells.

[2] = In vitro antioxidant capacity: inhibition of DPD oxidation by H2O2, in absence of cells
Description: Oxidation of N,N-diethyl-p-phenylenediamine (DPD) by a prooxidant system was used as a general reporter of the amount of ROS generated by that system (Anonymous, 1985; Chahine et al., 1991). Antioxidant capacity of preparations of TRIAD (or of its components) was defined as the ability to inhibit the oxidation of DPD by prooxidants.
To estimate the antioxidant capacity of TRIAD preparations in the prooxidant conditions used with P19 neurons, DPD was added to a final concentration of 32 mM to 200 μl of each prooxidant system described above (see section 2.4) and incubated for the times tested with the cells. At the end of incubation, the amount of oxidized DPD was determined at 560 nm using a spectrophotometer adapted to microscale measurement.

P19 neurons [3] = assay: Protection of P19 neurons exposed to XA/XAO mediated oxidative stress (Alamar Blue viability); format: cell-based; settings: 1× concentration
Description: Culture and neuronal differentiation of P19 embryonal carcinoma cells were done according to the procedures of Jeannotte et al. (1997) with the following modifications for microscale adaptation of cultures to 96-well plates: cell aggregates obtained at day 4 of the treatment of P19 cells with retinoic acid were trypsinized with 0.025% trypsin-1 mM EDTA in PBS and subjected to mechanical passages to obtain individual cells which were seeded in gelatin-precoated microwells at a density of 0.7-1×10^5 cells per well. […]
Another protocol was also tested for XA/XAO system to generate a milder oxidative stress. […] At end of stress, PBS was changed for Neurobasal-minus AO medium and cells were incubated for 7 h, readily in the presence of Alamar Blue, for viability measurement.
as §1

| SMILES | LD50 (P19 neurons [1]; mouse, 30 min) | Cell mortality (P19 neurons [1]; mouse, 30 min, 1 mM) | Contribution to TRIAD protective effect (P19 neurons [1]; H2O2/Fe2+ prooxidant system) | Protection against oxidative stress caused by hydrogen peroxide (P19 neurons [1]) | Share of the protective effect of TRIAD (P19 neurons [1]; at low hydrogen peroxide concentrations) | Contribution to the neuroprotective action of TRIAD against H2O2-induced injury (P19 neurons [1]; cultured neurons) | Inhibition of the oxidation of DPD by H2O2 [2] | Protection against neuronal death caused by XA/XAO (P19 neurons [3]; 500 μM XA, 50 mU/mL XAO, 0-90 min) | Protective effect against XA/XAO (P19 neurons [3]; from 30 to 90 min of incubation with XA/XAO) |
| --- | --- | --- | --- | --- | --- | --- | --- | --- | --- |
| OO [hydrogen peroxide, reference compound] | 0.3 mM | approximately 70% |  |  |  |  |  |  |  |
| CC(=O)C(=O)[O-].[Na+] [pyruvate, sodium pyruvate] |  |  | contributed for most of TRIAD protective effect | substantial and stable protection up to 10 mM H2O2 | half | 60% | substantial although not total antioxidant effect | protected only slightly less than TRIAD 1× | remained stable |
| Cc1c(C)c2c(c(C)c1O)CC[C@@](C)(CCC[C@H](C)CCC[C@H](C)CCCC(C)C)O2 [vitamin E, α-tocopherol] |  |  |  | did not provide protection |  |  |  |  |  |
